Where a name gives a salt, the structure may show the parent alone.
| SMILES | melting point |
| --- | --- |
| O=C([O-])c1ccc(C(=O)Nc2cn3cc(-n4ccnc4)ccc3n2)cc1.[K+] | > 400 °C |
| CC(C)(C)c1ccc(C(=O)Nc2cn3c4c(ccc3n2)OCC4)cn1 (as salt: hydrochloride) [Example 18, 6-tert-butyl-N-(1,2-dihydrofuro[2,3-e]imidazo[1,2-a]pyridin-7-yl)nicotinamide dihydrochloride] | 199 to 200 °C |
| COC(=O)C(C)(C)c1ccc(C(=O)Nc2cn3c4c(ccc3n2)OCC4)cc1 [Example 15, methyl 2-[4-(1,2-dihydrofuro[2,3-e]imidazo[1,2-a]pyridin-7-ylcarbamoyl)phenyl]-2-methylpropanoate] | 235 to 237 °C |
| CC(C)(C(=O)O)c1ccc(C(=O)Nc2cn3c4c(ccc3n2)OCC4)cc1 [Example 16, 2-[4-(1,2-dihydrofuro[2,3-e]imidazo[1,2-a]pyridin-7-ylcarbamoyl)phenyl]-2-methylpropanoic acid] | 293 to 295 °C |
| CC(C)(C)c1ccc(C(=O)Nc2cn3c4c(ccc3n2)OCC4)cn1 [Example 17, 6-tert-butyl-N-(1,2-dihydrofuro[2,3-e]imidazo[1,2-a]pyridin-7-yl)nicotinamide] | 246 to 248 °C |
| CCOC(=O)CCC(C)(C)c1ccc(C(=O)Nc2cn3cc(C)ccc3n2)cc1 [Example 21, ethyl 4-methyl-4-{4-[(6-methylimidazo[1,2-a]pyridin-2-yl)carbamoyl]phenyl}pentanoate] | 152 to 154 °C |
| COC(=O)C(C)(C)c1ccc(C(=O)Nc2cn3cc(-c4ccsc4)ccc3n2)cc1 [Example 24, methyl 2-methyl-2-(4-{[6-(3-thienyl)imidazo[1,2-a]pyridin-2-yl]carbamoyl}phenyl)propanoate] | 200 to 201 °C |
| CC(C)(C(=O)O)c1ccc(C(=O)Nc2cn3cc(-c4ccsc4)ccc3n2)cc1 [Example 25, 2-methyl-2-(4-{[6-(3-thienyl)imidazo[1,2-a]pyridin-2-yl]carbamoyl}phenyl)propanoic acid] | 304 to 306 °C |
| COC(=O)C(C)(C)c1ccc(C(=O)Nc2cn3cc(-c4ccoc4)ccc3n2)cc1 [Example 26, methyl 2-methyl-2-(4-{[6-(3-furyl)imidazo[1,2-a]pyridin-2-yl]carbamoyl}phenyl)propanoate] | 202 to 203 °C |
| CC(C)(C(=O)O)c1ccc(C(=O)Nc2cn3cc(-c4ccoc4)ccc3n2)cc1 [Example 27, 2-methyl-2-(4-{[6-(3-furyl)imidazo[1,2-a]pyridin-2-yl]carbamoyl}phenyl)propanoic acid] | 307 to 309 °C |
| CC(C)(CCC#N)c1ccc(C(=O)Nc2cn3cc(Cl)ccc3n2)cc1 [Example 32, N-(6-chloroimidazo[1,2-a]pyridin-2-yl)-4-(3-cyano-1,1-dimethylpropyl)benzamide] | 198 to 199 °C |
| CC(C)(C(=O)NO)c1ccc(C(=O)Nc2cn3cc(Cl)ccc3n2)cc1 [Example 33, N-(6-chloroimidazo[1,2-a]pyridin-2-yl)-4-[2-(hydroxyamino)-1,1-dimethyl-2-oxoethyl]benzamide] | 212 to 213 °C |
| CC(C)(C(=O)NCC#N)c1ccc(C(=O)Nc2cn3cc(Cl)ccc3n2)cc1 [Example 34, N-(6-chloroimidazo[1,2-a]pyridin-2-yl)-4-{2-[(cyanomethyl)amino]-cyano-1,1-dimethyl-2-oxoethyl}benzamide] | 268 to 269 °C |
| CC(C)(C(=O)NCCC#N)c1ccc(C(=O)Nc2cn3cc(Cl)ccc3n2)cc1 [Example 35, N-(6-chloroimidazo[1,2-a]pyridin-2-yl)-4-{2-[(2-cyanoethyl)amino]-1,1-dimethyl-2-oxoethyl}benzamide] | 208 to 209 °C |
| CC(C)(CCc1nnn[nH]1)c1ccc(C(=O)Nc2cn3cc(Cl)ccc3n2)cc1 [Example 36, N-(6-chloroimidazo[1,2-a]pyridin-2-yl)-4-[1,1-dimethyl-3-(1H-tetrazol-5-yl)propyl]benzamide] | 250 to 251 °C |

Results, then the compound that gave them:

| melting point | SMILES |
| --- | --- |
| 259 to 260 °C | CN(C)c1ccc2nc(NC(=O)c3ccc(C(C)(C)C)cc3)cn2n1.Cl |
| 312 to 313 °C | CC(C)(C)c1ccc(C(=O)Nc2cn3nc(N)ccc3n2)cc1.Cl |
| 304 to 305 °C (dec.) | CC(C)c1ncc(-c2ccc3nc(NC(=O)c4ccc(C(C)(C)C)cc4)cn3n2)[nH]1.Cl |
| 204 to 205 °C | Cc1cccc2nc(NC(=O)c3ccc(C(C)(C)C)cc3)cn12.Cl |
| 298 to 300 °C | CC(C)(C)c1ccc(C(=O)Nc2cn3nc(-n4ccnc4)ccc3n2)cc1 (as salt: hydrochloride) [Example 141, 4-tert-butyl-N-[6-(1H-imidazol-1-yl)imidazo[1,2-b]pyridazin-2-yl]benzamide dihydrochloride] |
| 295 to 297 °C (dec.) | Cc1ncc(-c2ccc3nc(NC(=O)c4ccc(C(C)(C)C)cc4)cn3n2)[nH]1 (as salt: hydrochloride) [Example 156, 4-tert-butyl-N-[6-(2-methyl-1H-imidazol-5-yl)imidazo[1,2-b]pyridazin-2-yl]benzamide hydrochloride] |
| 257 to 259 °C | CC(C)(C)c1ccc(C(=O)Nc2cn3nc(N4CCCC4)ccc3n2)cc1.Cl (hydrate or solvate) |
| 266 to 268 °C | CC(C)(C)c1ccc(C(=O)Nc2cn3c4c(ccc3n2)OCC4)cc1 [Example 14, 4-tert-butyl-N-(1,2-dihydrofuro[2,3-e]imidazo[1,2-a]pyridin-7-yl)benzamide] |
| 228 to 230 °C | COC(=O)C(C)(C)c1ccc(C(=O)Nc2cn3cc(C)ccc3n2)cc1 [Example 19, methyl 2-methyl-2-{4-[(6-methylimidazo[1,2-a]pyridin-2-yl)carbamoyl]phenyl}propanoate] |
| 275 to 277 °C | Cc1ccc2nc(NC(=O)c3ccc(C(C)(C)C(=O)O)cc3)cn2c1 [Example 20] |
| 280 to 282 °C | Cc1ccc2nc(NC(=O)c3ccc(C(C)(C)CCC(=O)O)cc3)cn2c1 [Example 22, 4-methyl-4-{4-[(6-methylimidazo[1,2-a]pyridin-2-yl)carbamoyl]phenyl}pentanoic acid] |
| 234 to 235 °C | COC(=O)C(C)(C)c1ccc(C(=O)Nc2cn3cc(I)ccc3n2)cc1 [Example 23, methyl 2-{4-[(6-iodoimidazo[1,2-a]pyridin-2-yl)carbamoyl]phenyl}-2-methylpropanoate] |
| 306 to 307 °C | CC(C)(C(=O)O)c1ccc(C(=O)Nc2cn3cc(-c4cn[nH]c4)ccc3n2)cc1 [Example 29, 2-methyl-2-(4-{[6-(1H-pyrazol-4-yl)imidazo[1,2-a]pyridin-2-yl]carbamoyl}phenyl)propanoic acid] |
| 245 to 246 °C | COC(=O)C(C)(C)c1ccc(C(=O)Nc2cn3cc(Cl)ccc3n2)cc1 [Example 30, methyl 2-{4-[(6-chloroimidazo[1,2-a]pyridin-2-yl)carbamoyl]phenyl}-2-methylpropanoate] |
| 311 to 313 °C | CC(C)(C(=O)O)c1ccc(C(=O)Nc2cn3cc(Cl)ccc3n2)cc1 [Example 31, 2-{4-[(6-chloroimidazo[1,2-a]pyridin-2-yl)carbamoyl]phenyl}-2-methylpropanoic acid] |
| 248 to 250 °C | CC(C)(C#N)c1ccc(C(=O)Nc2cn3cc(Cl)ccc3n2)cc1 [Example 38, N-(6-chloroimidazo[1,2-a]pyridin-2-yl)-4-(1-cyano-1-methylethyl)benzamide] |

Reference: US20100029619A1, “FUSED HETEROCYCLIC COMPOUND” (TAKEDA PHARMACEUTICAL COMPANY LIMTED, priority 2006, published 2010)
